Each structure is given as a SMILES string. Read-outs that look alike come from different tables or passages of the source.

Data on 9 compounds can be found in USRE38761E1, “Styryl compounds which inhibit EGF receptor protein tyrosine kinase” (Yissum Research Development Company of the Hebrew …, priority 1987, dated 2005).

Assay [1] deals with T1, EGF receptor (Homo sapiens, UniProt P00533). The assay is described as follows: EGF-receptor kinase (PTK) activity inhibition on extracted EGF receptors, poly(GAT) substrate, Dixon analysis. It is filed as biochemical. More on the design: EGF receptors were prepared from A431 cells (obtained from the ATCC) and PTK activity of these receptors was assayed; endogenous in cells; host or cells: A431 cells (ATCC). The settings on record: EGF receptors from A431 cells; copoly Glu6Ala3Tyr1 substrate; analysis according to Dixon; read-out: Klnh, dissociation constant of the PTK-inhibitor complex. As for the experimental part: The different KInh values were determined by the analysis according to Dixon.
EGF-receptor purification is based on the procedure of Yarden and Schlessinger. A431 cells are grown in 80 cm^2 bottles in confluency (2×10^7 cells per bottle). The cells are washed twice with PBS and harvested with PBS containing 1.0 mmol EDTA (1 hour at 37° C.), and centrifuged at 600 g for 10 minutes. The cells are solubilized in 1 ml per 2×10^7 cells of cold solubilization buffer (50 mmol Hepes buffer, pH 7.6, 1% Triton X-100, 150 mmol NaCl, 5 mmol EGTA, 1 mmol PMSF, 50 μg/ml aprotinin, 25 mmol benzamidine, 5 μg/ml leupeptin, and 10 μg/ml soybean trypsin inhibitor) for 20 minutes at 4° C. After centrifugation at 100000g for 30 minutes, the supernatant is loaded onto a WGA-agarose column (100 μl of packed resin per 2×10^7 cells) and shaken for 2 hours at 4° C. The unabsorbed material is removed and the resin washed twice with HTN buffer (50 mmol Hepes, pH 7.6, 0.1% Triton X-100, 150 mmol NaCl), twice with HTN buffer containing 1 M NaCl, and twice with HTNG buffer (50 mmol Hepes, pH 7.6, 0.1% Triton X-100, 150 mmol NaCl, and 10% glycerol). The EGF receptor is eluted batchwise with HTNG buffer containing 0.5 M N-acetyl-D-glucosamine (200 μl per […] cells). The eluted material is stored in aliquots at −70° C. and diluted before use with TMTNG buffer (50 mmol Tris-Mes buffer, pH 7.6, 0.1% Triton X-100, 150 mmol NaCl, 10% glycerol).
The concentration of EGF in the assay is 300 nM in a final volume of 40 μl. After 5, 10 or 20 minutes, aliquots of 25 μl are applied onto Whatman 3-mm paper cuttings, which are then soaked in cold 10% TCA containing 0.01 M sodium pyrophosphate. After being washed overnight at 4° C., the paper cuttings are dried and counted, measuring ^32P Cerenkov radiation. […] The EGF response for the poly(GAT) phosphorylation is graphed.

In assay [2] the test system is cells incubated with EGF or serum. The assay is described as follows: Inhibition of cell proliferation as measured by inhibition of DNA synthesis ([3H]thymidine incorporation). It is filed as cell-based. As for the experimental part: Cells were seeded at 1×10^5 cells per well in 24-well Costar dishes pre-coated with human fibronectin (by incubating for 30 minutes at room temperature with 10 μg/0.5 ml/well). The cells were grown to confluence for 2 days. The medium was changed to DMEM containing 0.5 calf serum for 36-48 hours and the cells were then incubated with EGF (Toyobo, New York, N.Y.) (20 ng/ml) or serum (10% calf serum) and different concentrations of the inhibitory compounds. […] TCA precipitable material was quantitated by scintillation counting (C). […]
Cells termed HER 14 and K721A (=DK) were prepared by transfecting NIH3T3 cells (clone 2.2) (From C. Fryling, NCI, NIH), which lack endogenous EGF-receptors, with cDNA constructs of wild-type EGF-receptor or mutant EGF-receptor lacking tyrosine kinase activity (in which Lys 721 at the ATP-binding site was replaced by an Ala residue, respectively). All cells were grown in DMEM with 10% calf serum (Hyclone, Logan, Utah).

For assay [3], the target named is T1, EGF receptor. The note with it: membranes of A431 cells; reported; cited from earlier work.
[4] abbreviates: [3H]thymidine incorporation halved, cells stimulated with EGF (20 ng/ml), read-out: IC50 - EGF.
The mark [5] stands for this setting: [3H]thymidine incorporation halved, cells stimulated with serum (10% calf serum), read-out: IC50 - FCS.

T1 sequence (P00533 25-1210): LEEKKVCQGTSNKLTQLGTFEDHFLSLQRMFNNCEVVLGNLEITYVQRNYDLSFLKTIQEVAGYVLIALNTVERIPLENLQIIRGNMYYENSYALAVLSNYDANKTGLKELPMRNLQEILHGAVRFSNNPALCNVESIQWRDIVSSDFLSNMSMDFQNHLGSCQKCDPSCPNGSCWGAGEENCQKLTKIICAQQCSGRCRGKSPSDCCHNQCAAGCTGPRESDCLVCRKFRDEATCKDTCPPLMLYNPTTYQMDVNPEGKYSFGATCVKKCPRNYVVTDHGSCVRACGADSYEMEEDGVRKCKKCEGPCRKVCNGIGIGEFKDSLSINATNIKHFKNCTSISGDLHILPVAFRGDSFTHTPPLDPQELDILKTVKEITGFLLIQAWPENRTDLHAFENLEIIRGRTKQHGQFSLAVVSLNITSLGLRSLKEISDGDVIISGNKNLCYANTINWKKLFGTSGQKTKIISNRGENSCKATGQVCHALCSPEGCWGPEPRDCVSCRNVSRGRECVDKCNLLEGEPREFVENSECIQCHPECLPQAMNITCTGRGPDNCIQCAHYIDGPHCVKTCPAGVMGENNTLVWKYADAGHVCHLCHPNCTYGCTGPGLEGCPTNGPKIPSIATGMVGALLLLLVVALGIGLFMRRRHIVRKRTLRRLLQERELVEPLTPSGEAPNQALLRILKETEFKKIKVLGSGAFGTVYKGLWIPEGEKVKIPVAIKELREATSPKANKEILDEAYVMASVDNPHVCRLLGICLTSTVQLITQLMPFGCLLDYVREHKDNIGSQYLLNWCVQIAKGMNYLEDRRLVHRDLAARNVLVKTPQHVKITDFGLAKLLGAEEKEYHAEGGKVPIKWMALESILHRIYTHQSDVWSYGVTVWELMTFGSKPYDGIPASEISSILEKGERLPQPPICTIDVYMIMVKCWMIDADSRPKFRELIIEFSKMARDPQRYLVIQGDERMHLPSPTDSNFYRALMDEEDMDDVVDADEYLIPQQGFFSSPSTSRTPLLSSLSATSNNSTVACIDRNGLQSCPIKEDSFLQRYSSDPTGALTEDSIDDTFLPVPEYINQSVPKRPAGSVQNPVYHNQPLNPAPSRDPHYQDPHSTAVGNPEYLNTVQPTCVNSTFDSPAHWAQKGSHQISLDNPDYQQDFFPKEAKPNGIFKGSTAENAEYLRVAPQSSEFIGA

`COc1cc(C=C(C#N)C#N)cc(O)c1O` [Example 2, 3-methoxy-4,5-dihydroxybenzylidene malononitrile]: the Ki at EGF receptor [1] came to 2.2 ± 0.3 µM.

Turning to `CC(C)(C)c1cc(C=C(C#N)C#N)cc(C(C)(C)C)c1O` [Example 3, 3,5-di-tert butyl-4-hydroxybenzylidene malononitrile], the half-inhibitory concentration (IC50) was determined as 0.1 µM in assay [2] (read-out: IC50 - EGF) and 0.2 µM in assay [2] (read-out: IC50 - FCS).

On to `N#CC(C#N)=C(O)c1cc(O)c(O)c(O)c1` [Example 5, α-Hydroxy-3,4,5-trihydroxybenzylidene malononitrile], for which the Ki on EGF receptor [1] was determined as 4.5 µM.

As for `N#CC(=Cc1ccc(O)c(O)c1)C(N)=O` [Example 6, α-Cyano-3,4-dihydroxycinnamamide], at EGF receptor [1], the Ki stood at 3.5 ± 0.6 µM.

Regarding `N#CC(=Cc1ccc(O)c(O)c1)C(=O)O` [Example 10, α-Cyano-3,4-dihydroxycinnamic acid], the Ki on EGF receptor [1] is 23.6 µM.

`N#CC(C#N)=Cc1ccc(C=O)cc1` [Example 15, 4-Formylbenzylidene malononitrile]: at EGF receptor [1], the Ki is 20 µM.

With `N#CC(=Cc1ccc(O)c(O)c1)C(=O)Nc1ccccc1` [Example 25, N-Phenyl-α-cyano-3,4-dihydroxycinnamamide], the IC50 in assay [2] (setting [4]) came out at 30 µM; in assay [2] (setting [5]), 100 µM.

On to `CC(C)(C)c1cc(C=C(C#N)C(N)=S)cc(C(C)(C)C)c1` [Example 26, α-Cyano-β-(3,5-di-tertbutylphenyl)propenethioamide], for which the IC50 in assay [2] (setting [4]) is 20 µM; in assay [2] (setting [5]), 100 µM.

Turning to `O=CN/C=C/c1cc(O)ccc1O` [erbstatin], the “inhibition of EGF receptor autophosphorylation” value on EGF receptor [3] was “inhibits the autophosphorylation of the EGF receptor”.
